Results on four compounds are retold here after patent US20090042905A1, “TRIAZOLE DERIVATIVES AS LIGANDS OF G-PROTEIN COUPLED RECEPTORS” (AETERNA ZENTARIS GmbH, priority 2007, published 2009).

Where two headings read alike, the source gives them in different places.

In assay [1] the test system is male C57BL/6J mice. Kind of assay: Fasting-induced feeding behavior (food intake) of mice. It counts as in vivo. To be noted: po.
Assay [2] deals with male C57BL/6J mice. Described as above. Type of assay: in vivo. As to conditions: oral dose 2 μmol per mouse, 30 min before food. The method, then: The effectiveness of selected compounds of the invention on fasting-induced feeding behavior of mice was investigated.
The experiments were performed according to Asakawa A et al. (Asakawa A et al., Gut 2003, 52: 947-952) with the following technical details:
Preparation of compounds of the invention: dissolved in dimethylsulfoxide (DMSO) and then diluted in distilled water (i.e. 0.5, 1 and 10% DMSO for 0.5, 1 and 2 μmol/mouse, respectively);
Preparation of reference substance (positive control) sibutramine: dissolved in distilled water;
Control substance (negative vehicle control): 10% DMSO in distilled water (compounds of the invention); distilled water (sibutramine);
Route of administration: p.o.;
Pretreatment time: 30 min before presenting the food to the animals;
Volume of administration: 0.5 ml/mouse;
Animals: male C57BL/6J mice;
Body weight range: 18.3-21.4 g

For assay [3], the system named is C57BL/6 male mice fed a high-fat diet. Kind of assay: Diet-induced obesity (DIO) in mice, subchronic s.c. treatment. Type of assay: in vivo, mouse. To be noted: for Fat mass / Food efficiency / Lean mass / Σ Fat depots / Body weight gain / Cumulative food intake / Glucose / Insulin: 2 weeks; for Body weight gain / Cumulative food intake: difference day 35 vs day 21; for Glucose / Insulin: plasma. The method, then:
The effectiveness of selected compounds of the invention, i.e. their subchronic effects, on the energy balance of mice rendered obese by a high-fat diet was investigated.
Adult C57BL/6 male mice were fed ad libitum with either chow or a high-fat diet (60% of the calorie content from fat) for 5 weeks.
C57BL/6 mice fed with a high-fat diet readily develop obesity and represent a widely used model for investigating human obesity.
One-third of the dose was injected in the morning and two-third in the evening.
Body weight and food intake were monitored every day during the experiment. Body composition (lean and fat mass) was assessed using dual energy x-ray absorptiometry (DEXA) on day 0, 13 and 27. Blood was also sampled at sacrifice for the determination of plasma glucose, insulin and triglycerides.

For assay [4], the system named is differentiated 3T3-L1 cells. Description: Inhibition of isoproterenol-induced lipolysis by QRFP, and its antagonism by compounds, in an adipocyte cell line model (glycerol release). Type of assay: cell-based, mouse. As to conditions: for IC50 of QRFP-26 (inhibition of isoproterenol-induced lipolysis), shifted in presence of compound: 100 nM isoproterenol; for effect on the inhibitory effect of QRFP on isoproterenol-induced lipolysis: compound at 10^−9 to 10^−7 M. The method, then: The effectiveness of compounds of the invention to antagonize the QRFP-induced inhibition of isoproterenol-induced lipolysis was investigated using an adipocyte cell line model.
Cells were then were maintained in DMEM with 10% FBS for 2 days before lipolysis study.
All the cellular assays were performed in triplicate for each time point if not otherwise specified.
Differentiated 3T3-L1 cells were first washed with DMEM and incubated with DMEM containing 200 nM adenosine for 1 h at 37° C. The incubation medium was then removed. The lipolysis was induced by incubating the cells with DMEM supplemented with 2% bovine serum albumin fatty acid free and adenosine deaminase (1 U/mL) containing 100 nM of isoproterenol for 90 min at 37° C. The incubation medium (600 μL) was collected for glycerol assay following triglyceride hydrolysis.
After the incubation period, the incubation medium (600 μL) was collected for free glycerol measurement.
To document the antagonistic effect of compounds of the invention on the antilipolytic effect of QRFP, the dose-response curve of QRFP was carried out as described above in presence of selected compounds of the invention at 10^−9 to 10^−7 M. To document the net effect of QRFP and selected compounds of the invention on lipolysis induced by isoproterenol as control, cells were incubated in absence of isoproterenol in presence of QRFP or selected compounds of the invention at 10^−6 M.
Glycerol released was calculated as μmol/mg of total protein.
Lipolysis index was calculated as: (μmol of glycerol released/mg of protein of sample minus μmol of glycerol released/mg of protein in basal condition)/(μmol of glycerol released/mg of protein induced by 100 nM of isoproterenol minus μmol of glycerol released/mg of protein of basal condition).

Setting [5] is: 20 min, read-out: change of food intake - compounds versus vehicle treated negative control, at 20 min.
Where [6] appears, read: 1 h, read-out: change of food intake - compounds versus vehicle treated negative control, at 1 h.
Setting [7] is: 2 h, read-out: change of food intake - compounds versus vehicle treated negative control, at 2 h.
Where [8] appears, read: 4 h, read-out: change of food intake - compounds versus vehicle treated negative control, at 4 h.

`CC(C)CC(N(C)C)C1(c2ccc(Cl)cc2)CCC1` (stereo not drawn) [Sibutramine, 1-(4-chlorophenyl)-N,N-dimethyl-alpha-(2-methylpropyl)-cyclobutane-methanamine]: the change in vivo at 0.6 µmol/mouse in the assay on male C57BL/6J mice [1] (setting [5]) is -63%; in the assay on male C57BL/6J mice [1] (setting [6]) it was -66%; with male C57BL/6J mice [1] (setting [7]), -46%; with male C57BL/6J mice [1] (setting [8]), -21%.

Take `COc1ccc(Cn2c(CCc3ccccc3)nnc2[C@@H](Cc2c[nH]c3ccccc23)NC(=O)CN)cc1` [Compound 50, (R)-N-(1-(4-(4-methoxybenzyl)-5-phenethyl-4H-1,2,4-triazol-3-yl)-2-(1H-indol-3-yl)ethyl)-2-aminoacetamide]: the change in vivo at 2 µmol/mouse in the assay on male C57BL/6J mice [2] (setting [5]) is -54%. Further, in the assay with male C57BL/6J mice [2] (setting [6]), the change in vivo at 2 µmol/mouse is -44%. Besides, in the assay with male C57BL/6J mice [2] (setting [7]), the change in vivo at 2 µmol/mouse is -44%. Moreover, the change in vivo at 2 µmol/mouse in the assay on male C57BL/6J mice [2] (setting [8]) was -28%. In assay [3] (1.5 mg/kg per day s.c.), the Fat mass came to 7.6 g, the Food efficiency was found to be 1.88 mg/kJ, the Lean mass is 21.3 g and the “Σ Fat depots” value worked out at 1101 mg. In assay [3] (1.5 mg/kg per day s.c.), this compound registered a Body weight gain of 1.61 g, a Cumulative food intake of 852 kJ, a Glucose of 15.6 mmol/L and an Insulin of 66.3 pmol/L. Also, in assay [3] (6 mg/kg per day and 24 mg/kg per day, two weeks of treatment), the “body weight gain (in words)” value was “significantly decreased”. In assay [3] (6.0 mg/kg per day s.c.), the Fat mass is listed as 8.2 g, the Food efficiency worked out at 1.77 mg/kJ, the Lean mass amounted to 20.4 g and the “Σ Fat depots” value turned out to be 1192 mg. In assay [3] (6.0 mg/kg per day s.c.), this compound registered a Body weight gain of 1.44 g, a Cumulative food intake of 813 kJ, a Glucose of 15.2 mmol/L and an Insulin of 64.8 pmol/L. The “size of the fat depots (in words)” value in assay [3] (24 mg/kg per day) is “reduced”. For the same compound, in assay [3] (24 mg/kg per day s.c.), the Fat mass is on record as 6.3 g, the Food efficiency is -0.05 mg/kJ, the Lean mass was 20.6 g and the “Σ Fat depots” value is given as 902 mg. In assay [3] (24 mg/kg per day s.c.), the Body weight gain is -0.04 g, the Cumulative food intake was 801 kJ, the Glucose stood at 15.4 mmol/L and the Insulin is 60.3 pmol/L.

In the case of `CC(C)(N)C(=O)N[C@H](Cc1c[nH]c2ccccc12)c1nnc(Cc2ccccc2)n1Cc1ccccn1` [Compound 39, (R)-N-(1-(5-benzyl-4-(pyridin-2-ylmethyl)-4H-1,2,4-triazol-3-yl)-2-(1H-indol-3-yl)ethyl)-2-amino-2-methylpropanamide], the results for the “IC50 of QRFP-26 (inhibition of isoproterenol-induced lipolysis), shifted in presence of compound” value in assay [4] (compound at 10^−7 M), in assay [4] (compound at 10^−8 M) and in assay [4] (compound at 10^−9 M) were 6.9 nM, 6.6 nM and 5.6 nM, respectively. Moreover, the “effect on the inhibitory effect of QRFP on isoproterenol-induced lipolysis” value in assay [4] is listed as “non-competitive antagonist effect”.

As to `COc1ccc(Cn2c(CCc3ccccc3)nnc2[C@@H](Cc2c[nH]c3ccccc23)NC(=O)c2ccccn2)cc1` [Compound 79, (R)-N-(1-(4-(4-methoxybenzyl)-5-phenethyl-4H-1,2,4-triazol-3-yl)-2-(1H-indol-3-yl)ethyl)picolinamide], the “IC50 of QRFP-26 (inhibition of isoproterenol-induced lipolysis), shifted in presence of compound” value was determined as 124.4 nM in assay [4] (compound at 10^−7 M) and 2.829 nM in assay [4] (compound at 10^−9 M). Also, the “effect on the inhibitory effect of QRFP on isoproterenol-induced lipolysis” value in assay [4] is “antagonist effect”.
